Measured values: US20120101093A1, “SUBSTITUTED IMIDAZO[1,2-A]PYRIDINE DERIVATIVES, PHARMACEUTICAL COMPOSITIONS, AND METHODS OF USE AS BETA-SECRETASE INHIBITORS” (HIGH POINT PHARMACEUTICALS, LLC, priority 2009, published 2012)

These molecules were tested against T1, BACE-1 enzyme (Homo sapiens, UniProt P56817) (assay: BACE Fluorescence Resonance Energy Transfer (FRET) Assay). Conditions: pH 4-4.5, 30 min pre-incubation, about 1.5 hours reaction.
T1 construct: purchased R & D Systems 931AS
Assay type: biochemical
Protocol: BACE Fluorescence Resonance Energy Transfer (FRET) Assay
In the following assay, the proteolytic activity of BACE is measured by observing cleavage of a fluorescent group from a peptide substrate containing a rhodamine fluorescent donor and a quenching acceptor.
The inhibitory activity of compounds of Formula (I) may be compared to a statine derived control inhibitor STA200 (MP Biomedical Cat. #STA-200). The cleavage reaction occurs when a BACE-1 substrate (Invitrogen, Cat. #P2986) was added to a reaction mixture containing BACE-1 enzyme (R & D Systems, Cat. #931AS) and allowed to proceed for about 1.5 hours. Fluorescence, used as a marker of BACE activity, is monitored using 540 nm excitation and 585 nm emission wavelengths (Envision, Perkin Elmer).
A typical assay reaction contains BACE-1 enzyme—in assay buffer (50 mM sodium acetate, pH 4-4.5, 0.01% CHAPS (3-[(3-Cholamidopropyl)dimethylammonio]-1-propanesulfonate), 0.0125% TritonX-100, 0.006% EDTA) which is pre-incubated for 30 minutes with test compound in 7.5% DMSO. The reaction is initiated with the addition of BACE-1 substrate in assay buffer and allowed to proceed for about 1.5 hours at room temperature. Assays are conducted in black 384-well microtiter plates and scanned at room temperature using 540 nm excitation and 585 nm emission wavelengths.
In some instances, the percent inhibition at a given concentration is reported instead of the IC50.

T1 sequence (P56817 46-457 limits assumed): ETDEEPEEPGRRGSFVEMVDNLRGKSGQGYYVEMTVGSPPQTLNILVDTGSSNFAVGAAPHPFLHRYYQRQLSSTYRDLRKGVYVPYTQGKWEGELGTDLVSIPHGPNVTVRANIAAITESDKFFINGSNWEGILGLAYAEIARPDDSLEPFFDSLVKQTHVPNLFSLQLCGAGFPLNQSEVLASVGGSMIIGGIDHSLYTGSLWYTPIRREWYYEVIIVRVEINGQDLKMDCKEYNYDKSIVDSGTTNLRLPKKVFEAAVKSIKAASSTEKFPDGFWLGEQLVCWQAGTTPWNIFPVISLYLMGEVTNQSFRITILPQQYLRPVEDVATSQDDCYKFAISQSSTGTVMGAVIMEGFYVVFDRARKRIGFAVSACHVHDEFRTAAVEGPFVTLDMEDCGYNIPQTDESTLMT

IC50 | SMILES
0.51 µM | COc1cccc2nc(C(=O)Nc3nc4cc(-c5cccc(C(F)(F)F)c5)ccc4[nH]3)cn12 [Example 4, 5-Methoxy-imidazo[1,2-a]pyridine-2-carboxylic acid[5-(3-trifluoromethyl-phenyl)-1H-benzoimidazol-2-yl]-amide]
0.49 µM | Cc1c(N2CC[C@@H](O)C2)ccc2nc(C(=O)Nc3nc4cc(-c5cc(F)cc(Cl)c5)ccc4[nH]3)cn12 [Example 5, 6-((R)-3-Hydroxy-pyrrolidin-1-yl)-5-methyl-imidazo[1,2-a]pyridine-2-carboxylic acid [5-(3-chloro-5-fluoro-phenyl)-1H-benzoimidazol-2-yl]-amide]
0.25 µM | Cc1c(C#CC(C)(C)O)ccc2nc(C(=O)Nc3nc4cc(-c5cccc(C(F)(F)F)c5)ccc4[nH]3)cn12 [Example 6, 6-(3-Hydroxy-3-methyl-but-1-ynyl)-5-methyl-imidazo[1,2-a]pyridine-2-carboxylic acid [5-(3-trifluoromethyl-phenyl)-1H-benzoimidazol-2-yl]-amide]
0.1 µM | Cc1c(OCCO)ccc2nc(C(=O)Nc3nc4cc(-c5cccc(C(F)(F)F)c5)ccc4[nH]3)cn12 [Example 7, 6-(2-Hydroxy-ethoxy)-5-methyl-imidazo[1,2-a]pyridine-2-carboxylic acid [5-(3-trifluoromethyl-phenyl)-1H-benzoimidazol-2-yl]-amide]
0.2 µM | O=C(Nc1nc2cc(-c3cc(F)cc(Cl)c3)ccc2[nH]1)c1cn2c(N3CC[C@@H](O)C3)cccc2n1 [Example 8, 5-((R)-3-Hydroxy-pyrrolidin-1-yl)-imidazo[1,2-a]pyridine-2-carboxylic acid [5-(3-chloro-5-fluoro-phenyl)-1H-benzoimidazol-2-yl]-amide]
0.3 µM | O=C(Nc1nc2cc(-c3cccc(Cl)c3)ccc2[nH]1)c1cn2cc(OCCO)ccc2n1 [Example 9, 6-(2-Hydroxy-ethoxy)-imidazo[1,2-a]pyridine-2-carboxylic acid [5-(3-chloro-phenyl)-1H-benzoimidazol-2-yl]-amide]
0.08 µM | O=C(Nc1nc2cc(OCc3ccccc3)ccc2[nH]1)c1cn2cc(Cl)ccc2n1 [Example 13, 6-Chloro-imidazo[1,2-a]pyridine-2-carboxylic acid (5-benzyloxy-1H-benzoimidazol-2-yl)-amide]
0.12 µM | Cc1cccn2cc(C(=O)Nc3nc4cc(OCc5ccccc5)ccc4[nH]3)nc12 [Example 14, 8-Methyl-imidazo[1,2-a]pyridine-2-carboxylic acid (5-benzyloxy-1H-benzoimidazol-2-yl)-amide]
0.23 µM | O=C(Nc1nc2cc(OCc3ccc(Cl)cc3Cl)ccc2[nH]1)c1cn2cc(Cl)ccc2n1 [Example 15, 6-Chloro-imidazo[1,2-a]pyridine-2-carboxylic acid [5-(2,4-dichloro-benzyloxy)-1H-benzoimidazol-2-yl]-amide]
0.17 µM | O=C(Nc1nc2cc(OCc3cc(F)cc(F)c3)ccc2[nH]1)c1cn2cc(Cl)ccc2n1 [Example 16, 6-Chloro-imidazo[1,2-a]pyridine-2-carboxylic acid [5-(3,5-difluoro-benzyloxy)-1H-benzoimidazol-2-yl]-amide]
0.12 µM | O=C(Nc1nc2cc(OCc3ccc(C(F)(F)F)cc3)ccc2[nH]1)c1cn2ccccc2n1 [Example 17, Imidazo[1,2-a]pyridine-2-carboxylic acid [5-(4-trifluoromethyl-benzyloxy)-1H-benzoimidazol-2-yl]-amide]
0.23 µM | O=C(Nc1nc2cc(OCc3cc(F)cc(Cl)c3)ccc2[nH]1)c1cn2cc(Cl)ccc2n1 [Example 19, 6-Chloro-imidazo[1,2-a]pyridine-2-carboxylic acid [5-(3-chloro-5-fluoro-benzyloxy)-1H-benzoimidazol-2-yl]-amide]
0.25 µM | O=C(Nc1nc2cc(OCc3ccc(Cl)c(Cl)c3)ccc2[nH]1)c1cn2cc(Cl)ccc2n1 [Example 20, 6-Chloro-imidazo[1,2-a]pyridine-2-carboxylic acid [5-(3,4-dichloro-benzyloxy)-1H-benzoimidazol-2-yl]-amide]
0.14 µM | O=C(Nc1nc2cc(OCc3ccc(C(F)(F)F)cc3)ccc2[nH]1)c1cn2cc(Cl)ccc2n1 [Example 21, 6-Chloro-imidazo[1,2-a]pyridine-2-carboxylic acid [5-(4-trifluoromethyl-benzyloxy)-1H-benzoimidazol-2-yl]-amide]
0.19 µM | Cc1cccn2cc(C(=O)Nc3nc4cc(OCc5ccc(C(F)(F)F)cc5)ccc4[nH]3)nc12 [Example 22, 8-Methyl-imidazo[1,2-a]pyridine-2-carboxylic acid [5-(4-trifluoromethyl-benzyloxy)-1H-benzoimidazol-2-yl]-amide]
0.13 µM | O=C(Nc1nc2cc(OCc3ccc(F)cc3F)ccc2[nH]1)c1cn2cc(Cl)ccc2n1 [Example 24, 6-Chloro-imidazo[1,2-a]pyridine-2-carboxylic acid [5-(2,4-difluoro-benzyloxy)-1H-benzoimidazol-2-yl]-amide]

IC50 | SMILES
0.1 µM | COc1cccc(-c2ccc3[nH]c(NC(=O)c4cn5c(C)cccc5n4)nc3c2)c1 [Example 25, 5-Methyl-imidazo[1,2-a]pyridine-2-carboxylic acid [5-(3-methoxy-phenyl)-1H-benzoimidazol-2-yl]-amide]
1.29 µM | Cc1cccn2cc(C(=O)Nc3nc4cc(-c5ccccc5)ccc4[nH]3)nc12 [Example 29, 8-Methyl-imidazo[1,2-a]pyridine-2-carboxylic acid (5-phenyl-1H-benzoimidazol-2-yl)-amide]
4.15 µM | Cc1cccc2nc(C(=O)Nc3nc4cc(OC5CCCC5)ccc4[nH]3)cn12 [Example 30, 5-Methyl-imidazo[1,2-a]pyridine-2-carboxylic acid (5-cyclopentyloxy-1H-benzoimidazol-2-yl)-amide]
2.69 µM | Cc1cccn2cc(C(=O)Nc3nc4cc(OC5CCCC5)ccc4[nH]3)nc12 [Example 31, 8-Methyl-imidazo[1,2-a]pyridine-2-carboxylic acid (5-cyclopentyloxy-1H-benzoimidazol-2-yl)-amide]
1.36 µM | Cc1cccn2cc(C(=O)Nc3nc4cc(OCc5ccc(OC(F)(F)F)cc5)ccc4[nH]3)nc12 [Example 33, 8-Methyl-imidazo[1,2-a]pyridine-2-carboxylic acid [5-(4-trifluoromethoxy-benzyloxy)-1H-benzoimidazol-2-yl]-amide]
2.53 µM | O=C(Nc1nc2cc(-c3cccc(C(F)(F)F)c3)ccc2[nH]1)c1cn2cc(Cl)ccc2n1 [Example 34, 6-Chloro-imidazo[1,2-a]pyridine-2-carboxylic acid [5-(3-trifluoromethyl-phenyl)-1H-benzoimidazol-2-yl]-amide]
1.46 µM | Cc1cccc2nc(C(=O)Nc3nc4cc(N5CCC(c6ccccc6)CC5)ccc4[nH]3)cn12 [Example 36, 5-Methyl-imidazo[1,2-a]pyridine-2-carboxylic acid [5-(4-phenyl-piperidin-1-yl)-1H-benzoimidazol-2-yl]-amide]
1.8 µM | Cc1cccn2cc(C(=O)Nc3nc4cc(N5CCC(c6ccccc6)CC5)ccc4[nH]3)nc12 [Example 37, 8-Methyl-imidazo[1,2-a]pyridine-2-carboxylic acid [5-(4-phenyl-piperidin-1-yl)-1H-benzoimidazol-2-yl]-amide]
3.14 µM | Cc1cccc2nc(C(=O)Nc3nc4cc(-c5ccncc5)ccc4[nH]3)cn12 [Example 38, 5-Methyl-imidazo[1,2-a]pyridine-2-carboxylic acid (5-pyridin-4-yl-1H-benzoimidazol-2-yl)-amide]
1.32 µM | COCCCOc1cccc(-c2ccc3[nH]c(NC(=O)c4cn5c(C)cccc5n4)nc3c2)c1 [Example 39, 5-Methyl-imidazo[1,2-a]pyridine-2-carboxylic acid {5-[3-(3-methoxy-propoxy)-phenyl]-1H-benzoimidazol-2-yl}-amide]
2.55 µM | Cc1cccc2nc(C(=O)Nc3nc4cc(-c5cccc(OC6CCCCC6)c5)ccc4[nH]3)cn12 [Example 40, 5-Methyl-imidazo[1,2-a]pyridine-2-carboxylic acid [5-(3-cyclohexyloxy-phenyl)-1H-benzoimidazol-2-yl]-amide]
3.06 µM | Cc1cccc2nc(C(=O)Nc3nc4cc(-c5cnn(C)c5)ccc4[nH]3)cn12 [Example 41, 5-Methyl-imidazo[1,2-a]pyridine-2-carboxylic acid [5-(1-methyl-1H-pyrazol-4-yl)-1H-benzoimidazol-2-yl]-amide]
4.37 µM | Cc1cccc2nc(C(=O)Nc3nc4cc(-c5cccc(N6CCOCC6)c5)ccc4[nH]3)cn12 [Example 44, 5-Methyl-imidazo[1,2-a]pyridine-2-carboxylic acid [5-(3-morpholin-4-yl-phenyl)-1H-benzoimidazol-2-yl]-amide]
1.49 µM | Cc1cccc2nc(C(=O)Nc3nc4cc(-c5cccc(F)c5)ccc4[nH]3)cn12 [Example 45, 5-Methyl-imidazo[1,2-a]pyridine-2-carboxylic acid [5-(3-fluoro-phenyl)-1H-benzoimidazol-2-yl]-amide]
0.4 µM | Cc1cccn2cc(C(=O)Nc3nc4cc(-c5cc(F)cc(Cl)c5)ccc4[nH]3)nc12 [Example 57, 8-Methyl-imidazo[1,2-a]pyridine-2-carboxylic acid [5-(3-chloro-5-fluoro-phenyl)-1H-benzoimidazol-2-yl]-amide]
